Reference: publication PMC10914316 (Biochemistry, 2023)
Read-outs that look alike come from different tables or passages of the source.

Legend:
ArnA_DH [1] = target: T1, ArnA_DH (Escherichia coli, UniProt P77398); assay: biochemical
ArnA_DH [2] = target: T1, ArnA_DH; details: for Tm (melting temperature of ArnA_DH with ligand): no ligand Tm = 318.4 ± 0.03 K
ArnA_DH_N492A [3] = target: T2, ArnA_DH_N492A (Escherichia coli, UniProt P77398, N492A); assay: Thermal stability shift assay for ligand binding to N492A mutant
T2 sequence (P77398 314-660 N492A): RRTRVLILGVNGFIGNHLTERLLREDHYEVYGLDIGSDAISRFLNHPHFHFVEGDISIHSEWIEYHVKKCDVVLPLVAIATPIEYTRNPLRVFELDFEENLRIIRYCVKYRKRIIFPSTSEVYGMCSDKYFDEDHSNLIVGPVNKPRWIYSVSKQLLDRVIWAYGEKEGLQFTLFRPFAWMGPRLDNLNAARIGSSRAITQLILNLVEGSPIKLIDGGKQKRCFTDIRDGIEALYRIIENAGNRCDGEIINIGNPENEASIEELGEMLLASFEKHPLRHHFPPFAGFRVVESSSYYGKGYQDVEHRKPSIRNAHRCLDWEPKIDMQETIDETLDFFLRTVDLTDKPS

ArnA_DH_N492A [4] = target: T2, ArnA_DH_N492A; assay: NADH binding; format: biochemical; details: concentrations as high as 10 mM

| Structure (SMILES) | Kd (ArnA_DH [1]) [µM] | Tm (melting temperature of ArnA_DH with ligand) (ArnA_DH [2]; 1 mM ligand) [K] | Kd (ArnA_DH_N492A [3]) [µM] | UDP-GlcA-induced conformational change of ArnA_DH_N492A (intrinsic NADH fluorescence) (ArnA_DH_N492A [4]) | ligand binding by thermal stability shift assay (ArnA_DH [2]; 1 mM and 10 mM ligand) | Tm (melting temperature of ArnA_DH with ligand) (ArnA_DH [2]; 10 mM ligand) [K] |
| --- | --- | --- | --- | --- | --- | --- |
| O=c1ccn([C@@H]2O[C@H](COP(=O)(O)O)[C@@H](O)[C@H]2O)c(=O)[nH]1 [UMP, uridine monophosphate] | 594 ± 135 | 320.6 ± 0.02 | – | – | – | – |
| O=C(O)[C@H]1O[C@H](OP(=O)(O)OP(=O)(O)OC[C@H]2O[C@@H](n3ccc(=O)[nH]c3=O)[C@H](O)[C@@H]2O)[C@H](O)[C@@H](O)[C@@H]1O [UDP-GlcA, UDP-glucuronic acid] | 22 ± 5 | – | 36 ± 7 | little change in the intrinsic NADH fluorescence | – | – |
| O=c1ccn([C@@H]2O[C@H](COP(=O)(O)OP(=O)(O)O[C@H]3OC[C@@H](O)[C@H](O)[C@H]3O)[C@@H](O)[C@H]2O)c(=O)[nH]1 [UDP-xylose] | 633 ± 116 | 320.0 ± 0.03 | – | – | – | – |
| O=C(O)[C@H]1O[C@H](OP(=O)(O)O)[C@H](O)[C@@H](O)[C@@H]1O [GlcA-1P, glucuronic acid-1-phosphate] | – | 318.9 ± 0.02 | – | – | undetectable | 318.4 ± 0.03 |
